Results published in ChEMBL document CHEMBL4699558, “Lead optimization of 8-(methylamino)-2-oxo-1,2-dihydroquinolines as bacterial type II topoisomerase inhibitors” (Bioorg Med Chem, 2020).
Converted amounts (≈) assume the structure as drawn.

tested on: Staphylococcus aureus; assay: Antibacterial activity against hospital-acquired Methicillin -resistant Staphylococcus aureus ATCC BAA-811 by CLSI method; assay type: functional; settings: not given

SMILES	MIC
CNc1cc(F)cc2cc(C(=O)Nc3ccc(C(=O)O)cc3)c(=O)[nH]c12	8 µg/mL (≈ 22.5 µM)
CNc1cc(F)cc2cc(C(=O)Nc3ccc(C(=O)O)cc3CN(CCO)C3CCCCC3)c(=O)[nH]c12.Cl	1 µg/mL

tested on: Streptococcus anginosus; assay: Antibacterial activity against Streptococcus anginosus ATCC 33397 by CLSI method; assay type: functional; settings: not given

SMILES	MIC
CNc1cc(F)cc2cc(C(=O)Nc3ccc(C(=O)O)cc3)c(=O)[nH]c12	0.06 µg/mL (≈ 0.169 µM)
CNc1cc(F)cc2cc(C(=O)Nc3ccc(C(=O)O)cc3CN(CCO)C3CCCCC3)c(=O)[nH]c12.Cl	0.008 µg/mL

tested on: Enterococcus faecium; assay: Antibacterial activity against vancomycin-resistant Enterococcus faecium ATCC 51559 by CLSI method; assay type: functional; settings: not given

SMILES	MIC
CNc1cc(F)cc2cc(C(=O)Nc3ccc(C(=O)O)cc3)c(=O)[nH]c12	0.015 µg/mL (≈ 0.0422 µM)
CNc1cc(F)cc2cc(C(=O)Nc3ccc(C(=O)O)cc3CN(CCO)C3CCCCC3)c(=O)[nH]c12.Cl	0.015 µg/mL

target: Voltage-gated inwardly rectifying potassium channel KCNH2 (Homo sapiens, UniProt Q12809); assay: Inhibition of human ERG expressed in CHO cells by Q-patch clamp assay; settings: not given
Sequence (Q12809 whole entry): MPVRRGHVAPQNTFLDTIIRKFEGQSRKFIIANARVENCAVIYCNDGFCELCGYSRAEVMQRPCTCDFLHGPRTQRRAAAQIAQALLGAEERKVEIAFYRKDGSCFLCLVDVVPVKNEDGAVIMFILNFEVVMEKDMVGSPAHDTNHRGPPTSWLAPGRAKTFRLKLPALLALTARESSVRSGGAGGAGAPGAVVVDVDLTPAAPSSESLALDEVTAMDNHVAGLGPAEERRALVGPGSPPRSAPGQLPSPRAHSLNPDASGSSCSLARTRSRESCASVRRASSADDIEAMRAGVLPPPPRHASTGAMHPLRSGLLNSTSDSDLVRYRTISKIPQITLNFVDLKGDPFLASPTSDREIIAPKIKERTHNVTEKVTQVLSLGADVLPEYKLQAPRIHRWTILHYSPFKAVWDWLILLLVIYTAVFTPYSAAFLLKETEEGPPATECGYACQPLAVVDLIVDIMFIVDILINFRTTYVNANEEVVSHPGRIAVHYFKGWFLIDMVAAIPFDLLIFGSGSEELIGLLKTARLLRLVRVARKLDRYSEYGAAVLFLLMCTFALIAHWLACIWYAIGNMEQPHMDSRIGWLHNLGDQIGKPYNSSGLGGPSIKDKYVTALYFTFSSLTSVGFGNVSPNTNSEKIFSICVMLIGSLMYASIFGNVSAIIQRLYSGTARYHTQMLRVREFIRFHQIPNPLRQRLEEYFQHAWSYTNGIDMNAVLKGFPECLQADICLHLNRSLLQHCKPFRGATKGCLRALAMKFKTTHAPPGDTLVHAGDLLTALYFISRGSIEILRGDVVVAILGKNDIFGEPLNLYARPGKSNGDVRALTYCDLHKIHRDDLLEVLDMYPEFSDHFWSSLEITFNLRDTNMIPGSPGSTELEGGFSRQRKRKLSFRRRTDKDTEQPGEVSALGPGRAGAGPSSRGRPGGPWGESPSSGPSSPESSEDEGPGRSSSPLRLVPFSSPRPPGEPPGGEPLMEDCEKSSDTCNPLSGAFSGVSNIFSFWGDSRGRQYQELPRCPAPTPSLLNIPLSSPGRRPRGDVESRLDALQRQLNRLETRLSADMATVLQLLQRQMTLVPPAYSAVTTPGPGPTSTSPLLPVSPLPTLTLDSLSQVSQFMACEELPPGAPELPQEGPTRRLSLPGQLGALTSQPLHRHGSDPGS

SMILES	IC50
CNc1cc(F)cc2cc(C(=O)Nc3ccc(C(=O)O)cc3CN(CCO)C3CCCCC3)c(=O)[nH]c12.Cl	> 30000 nM

tested on: Staphylococcus aureus; assay: Antibacterial activity against Staphylococcus aureus ATCC 29213 by CLSI method; assay type: functional; settings: not given

SMILES	MIC
CNc1cc(F)cc2cc(C(=O)Nc3ccc(C(=O)O)cc3)c(=O)[nH]c12	4 µg/mL (≈ 11.3 µM)
CNc1cc(F)cc2cc(C(=O)Nc3ccc(C(=O)O)cc3CN(CCO)C3CCCCC3)c(=O)[nH]c12.Cl	0.5 µg/mL

target: DNA gyrase (Escherichia coli) (UniProt P0AES6+P0AES4); assay: Potency index, ratio of IC50 of 4-(8-(methylamino)-2-oxo-1,2-dihydroquinoline-3-carboxamido)benzoic acid to IC50 of compound for inhibition of Escherichia coli DNA gyrase incubated for 60 mins by fluorescence based assay; assay type: protein-complex assay; settings: not given

SMILES	Ratio IC50
CNc1cc(F)cc2cc(C(=O)Nc3ccc(C(=O)O)cc3)c(=O)[nH]c12	5

target: DNA topoisomerase 2-alpha (Homo sapiens, UniProt P11388); assay: Inhibition of human topoisomerase 2alpha; assay type: ADME; settings: not given
Sequence (P11388 whole entry): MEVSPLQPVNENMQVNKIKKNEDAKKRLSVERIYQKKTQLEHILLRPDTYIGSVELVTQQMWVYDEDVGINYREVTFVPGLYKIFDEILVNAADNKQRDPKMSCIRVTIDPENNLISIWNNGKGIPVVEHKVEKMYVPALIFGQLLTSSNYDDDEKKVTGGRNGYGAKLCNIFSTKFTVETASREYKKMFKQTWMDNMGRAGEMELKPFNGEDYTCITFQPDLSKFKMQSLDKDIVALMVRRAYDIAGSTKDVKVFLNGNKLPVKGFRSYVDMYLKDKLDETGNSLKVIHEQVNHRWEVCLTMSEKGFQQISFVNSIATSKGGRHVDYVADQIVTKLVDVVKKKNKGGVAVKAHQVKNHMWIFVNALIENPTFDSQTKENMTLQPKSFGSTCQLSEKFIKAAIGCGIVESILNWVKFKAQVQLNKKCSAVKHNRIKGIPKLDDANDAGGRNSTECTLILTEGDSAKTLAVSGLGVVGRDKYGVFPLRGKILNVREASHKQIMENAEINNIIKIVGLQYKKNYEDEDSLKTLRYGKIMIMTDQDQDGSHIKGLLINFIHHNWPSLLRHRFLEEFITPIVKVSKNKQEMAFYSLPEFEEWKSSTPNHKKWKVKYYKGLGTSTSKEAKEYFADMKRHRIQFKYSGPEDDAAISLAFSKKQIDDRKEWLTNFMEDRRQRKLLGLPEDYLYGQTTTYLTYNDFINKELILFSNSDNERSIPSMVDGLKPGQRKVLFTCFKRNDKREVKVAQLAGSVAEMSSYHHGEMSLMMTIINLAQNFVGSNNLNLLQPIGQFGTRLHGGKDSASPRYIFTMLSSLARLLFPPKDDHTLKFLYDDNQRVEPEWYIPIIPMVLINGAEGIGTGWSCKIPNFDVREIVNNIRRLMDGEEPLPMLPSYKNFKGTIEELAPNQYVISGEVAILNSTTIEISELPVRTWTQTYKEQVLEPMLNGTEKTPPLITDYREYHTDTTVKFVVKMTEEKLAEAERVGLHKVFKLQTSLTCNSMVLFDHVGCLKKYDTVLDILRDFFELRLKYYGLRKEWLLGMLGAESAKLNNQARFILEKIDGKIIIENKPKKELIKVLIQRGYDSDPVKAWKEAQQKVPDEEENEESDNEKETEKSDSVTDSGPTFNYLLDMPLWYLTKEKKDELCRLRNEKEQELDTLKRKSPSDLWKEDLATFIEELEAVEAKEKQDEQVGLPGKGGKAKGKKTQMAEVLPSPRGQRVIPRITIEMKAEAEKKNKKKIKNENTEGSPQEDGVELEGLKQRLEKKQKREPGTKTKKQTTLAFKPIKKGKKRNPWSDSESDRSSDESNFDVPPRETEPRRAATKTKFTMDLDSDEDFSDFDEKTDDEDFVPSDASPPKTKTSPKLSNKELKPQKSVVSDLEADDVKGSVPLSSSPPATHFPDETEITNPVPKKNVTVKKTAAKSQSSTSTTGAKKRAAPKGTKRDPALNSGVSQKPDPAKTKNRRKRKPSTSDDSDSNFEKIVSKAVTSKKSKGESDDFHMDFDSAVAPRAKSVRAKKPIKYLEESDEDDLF

SMILES	IC50
CNc1cc(F)cc2cc(C(=O)Nc3ccc(C(=O)O)cc3CN(CCO)C3CCCCC3)c(=O)[nH]c12.Cl	> 100000 nM

tested on: Escherichia coli; assay: Antibacterial activity against Escherichia coli ATCC 25922 by CLSI method; assay type: functional; settings: not given

SMILES	MIC
CNc1cc(F)cc2cc(C(=O)Nc3ccc(C(=O)O)cc3)c(=O)[nH]c12	16 µg/mL (≈ 45 µM)
CNc1cc(F)cc2cc(C(=O)Nc3ccc(C(=O)O)cc3CN(CCO)C3CCCCC3)c(=O)[nH]c12.Cl	4 µg/mL

target: DNA gyrase (Escherichia coli, UniProt P0AES4+P0AES6); assay: Inhibition of Escherichia coli DNA gyrase by measuring supercoiling activity incubated for 60 mins by fluorescence based assay; assay type: protein-complex assay; settings: not given

SMILES	IC50
CNc1cc(F)cc2cc(C(=O)Nc3ccc(C(=O)O)cc3)c(=O)[nH]c12	0.36 nM
CNc1cc(F)cc2cc(C(=O)Nc3ccc(C(=O)O)cc3CN(CCO)C3CCCCC3)c(=O)[nH]c12.Cl	0.29 nM

tested on: Escherichia coli; assay: Antibacterial activity against Escherichia coli ATCC 25922 in presence of PAbetaN by CLSI method; assay type: functional; settings: not given

SMILES	MIC
CNc1cc(F)cc2cc(C(=O)Nc3ccc(C(=O)O)cc3)c(=O)[nH]c12	0.015 µg/mL
CNc1cc(F)cc2cc(C(=O)Nc3ccc(C(=O)O)cc3CN(CCO)C3CCCCC3)c(=O)[nH]c12.Cl	≤ 0.03 µg/mL

tested on: Prevotella melaninogenica; assay: Antibacterial activity against Prevotella melaninogenica JCM6325 by CLSI method; assay type: functional; settings: not given

SMILES	MIC
CNc1cc(F)cc2cc(C(=O)Nc3ccc(C(=O)O)cc3CN(CCO)C3CCCCC3)c(=O)[nH]c12.Cl	> 32 µg/mL

tested on: not listed separately; assay: Cytotoxicity against human HepG2 cells assessed as reduction in cell viability at 10 uM incubated for 48 hrs by CCK-8 assay; settings: HepG2 cells

SMILES	cytotoxicity at 48 h, 10 µM
CNc1cc(F)cc2cc(C(=O)Nc3ccc(C(=O)O)cc3CN(CCO)C3CCCCC3)c(=O)[nH]c12.Cl	-2.04%

tested on: Peptostreptococcus anaerobius; assay: Antibacterial activity against Peptostreptococcus anaerobius ATCC 27337 by CLSI method; assay type: functional; settings: not given

SMILES	MIC
CNc1cc(F)cc2cc(C(=O)Nc3ccc(C(=O)O)cc3CN(CCO)C3CCCCC3)c(=O)[nH]c12.Cl	0.12 µg/mL

tested on: Fusobacterium nucleatum; assay: Antibacterial activity against Fusobacterium nucleatum JCM8532 by CLSI method; assay type: functional; settings: not given

SMILES	MIC
CNc1cc(F)cc2cc(C(=O)Nc3ccc(C(=O)O)cc3CN(CCO)C3CCCCC3)c(=O)[nH]c12.Cl	0.12 µg/mL

tested on: not listed separately; assay: Inhibition of Escherichia coli topoisomerase IV by measuring relaxation activity incubated for 30 mins by fluorescence based assay; settings: not given

SMILES	IC50
CNc1cc(F)cc2cc(C(=O)Nc3ccc(C(=O)O)cc3)c(=O)[nH]c12	219 nM
CNc1cc(F)cc2cc(C(=O)Nc3ccc(C(=O)O)cc3CN(CCO)C3CCCCC3)c(=O)[nH]c12.Cl	23.4 nM

tested on: Enterococcus faecium; assay: Antibacterial activity against Enterococcus faecium ATCC 35667 by CLSI method; assay type: functional; settings: not given

SMILES	MIC
CNc1cc(F)cc2cc(C(=O)Nc3ccc(C(=O)O)cc3)c(=O)[nH]c12	0.03 µg/mL (≈ 0.0844 µM)
CNc1cc(F)cc2cc(C(=O)Nc3ccc(C(=O)O)cc3CN(CCO)C3CCCCC3)c(=O)[nH]c12.Cl	0.015 µg/mL

tested on: Enterococcus faecalis; assay: Antibacterial activity against Enterococcus faecalis ATCC 29212 by CLSI method; assay type: functional; settings: not given

SMILES	MIC
CNc1cc(F)cc2cc(C(=O)Nc3ccc(C(=O)O)cc3)c(=O)[nH]c12	0.015 µg/mL (≈ 0.0422 µM)
CNc1cc(F)cc2cc(C(=O)Nc3ccc(C(=O)O)cc3CN(CCO)C3CCCCC3)c(=O)[nH]c12.Cl	0.008 µg/mL

tested on: Clostridioides difficile; assay: Antibacterial activity against Clostridioides difficile ATCC 700057 by CLSI method; assay type: functional; settings: not given

SMILES	MIC
CNc1cc(F)cc2cc(C(=O)Nc3ccc(C(=O)O)cc3CN(CCO)C3CCCCC3)c(=O)[nH]c12.Cl	1 µg/mL

tested on: not listed separately; assay: Cytotoxicity against human HepG2 cells assessed as reduction in cell viability at 50 uM incubated for 48 hrs by CCK-8 assay; settings: HepG2 cells

SMILES	cytotoxicity at 48 h, 50 µM
CNc1cc(F)cc2cc(C(=O)Nc3ccc(C(=O)O)cc3CN(CCO)C3CCCCC3)c(=O)[nH]c12.Cl	7.76%

tested on: Streptococcus pneumoniae; assay: Antibacterial activity against Streptococcus pneumoniae ATCC 49619 by CLSI method; assay type: functional; settings: not given

SMILES	MIC
CNc1cc(F)cc2cc(C(=O)Nc3ccc(C(=O)O)cc3)c(=O)[nH]c12	0.03 µg/mL (≈ 0.0844 µM)
CNc1cc(F)cc2cc(C(=O)Nc3ccc(C(=O)O)cc3CN(CCO)C3CCCCC3)c(=O)[nH]c12.Cl	0.015 µg/mL

tested on: Staphylococcus aureus; assay: Antibacterial activity against community-acquired Methicillin -resistant Staphylococcus aureus ATCC BAA-1556 by CLSI method; assay type: functional; settings: not given

SMILES	MIC
CNc1cc(F)cc2cc(C(=O)Nc3ccc(C(=O)O)cc3)c(=O)[nH]c12	8 µg/mL (≈ 22.5 µM)
CNc1cc(F)cc2cc(C(=O)Nc3ccc(C(=O)O)cc3CN(CCO)C3CCCCC3)c(=O)[nH]c12.Cl	1 µg/mL

tested on: Porphyromonas gingivalis; assay: Antibacterial activity against Porphyromonas gingivalis JCM8525 by CLSI method; assay type: functional; settings: not given

SMILES	MIC
CNc1cc(F)cc2cc(C(=O)Nc3ccc(C(=O)O)cc3CN(CCO)C3CCCCC3)c(=O)[nH]c12.Cl	0.12 µg/mL

tested on: Enterococcus faecalis; assay: Antibacterial activity against vancomycin-resistant Enterococcus faecalis ATCC 51575 by CLSI method; assay type: functional; settings: not given

SMILES	MIC
CNc1cc(F)cc2cc(C(=O)Nc3ccc(C(=O)O)cc3)c(=O)[nH]c12	0.015 µg/mL (≈ 0.0422 µM)
CNc1cc(F)cc2cc(C(=O)Nc3ccc(C(=O)O)cc3CN(CCO)C3CCCCC3)c(=O)[nH]c12.Cl	0.008 µg/mL

tested on: Haemophilus influenzae; assay: Antibacterial activity against Haemophilus influenzae ATCC 43095 by CLSI method; assay type: functional; settings: not given

SMILES	MIC
CNc1cc(F)cc2cc(C(=O)Nc3ccc(C(=O)O)cc3)c(=O)[nH]c12	0.03 µg/mL (≈ 0.0844 µM)
CNc1cc(F)cc2cc(C(=O)Nc3ccc(C(=O)O)cc3CN(CCO)C3CCCCC3)c(=O)[nH]c12.Cl	0.06 µg/mL

tested on: Bacteroides fragilis; assay: Antibacterial activity against Bacteroides fragilis ATCC 25285 by CLSI method; assay type: functional; settings: not given

SMILES	MIC
CNc1cc(F)cc2cc(C(=O)Nc3ccc(C(=O)O)cc3CN(CCO)C3CCCCC3)c(=O)[nH]c12.Cl	> 32 µg/mL

tested on: Escherichia coli; assay: Potency index, ratio of MIC of 4-(8-(methylamino)-2-oxo-1,2-dihydroquinoline-3-carboxamido)benzoic acid to MIC of compound for antibacterial activity against Escherichia coli ATCC 25922; assay type: functional; settings: not given

SMILES	Ratio
CNc1cc(F)cc2cc(C(=O)Nc3ccc(C(=O)O)cc3)c(=O)[nH]c12	4
